# Experimental data reported in the supplement of paper PMC10307832.
# Columns and labels:
# Experiment in all cases: relative viability (nuclei count vs DMSO), 5 days (fraction); higher = more cells survive
# TGX 221 = compound: CC1=CN2C(=O)C=C(N=C2C(=C1)C(C)NC3=CC=CC=C3)N4CCOCC4 [TGX 221]
# Method in brief: (§1)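 Five library-drug doses, separated by factors of √10, were pinned into 1536-well plates holding lung cancer cell lines after an overnight stay at 37 °C. Cells were fixed, permeabilised and Hoechst-stained in one step after 5 days without medium change, then imaged at 4×. Viability compares treated-well with vehicle-well nuclei, counted in MetaXpress, as a median across plates. Passing plates had control CV below 25% and at least one doubling.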
# Ricolinostat = compound: O=C(CCCCCCNC(=O)c1cnc(N(c2ccccc2)c2ccccc2)nc1)NO [Ricolinostat]
# Method in brief: as §1
# [1] = compound: C1=CC=C(C(=C1)C2=CC=C(C=C2)C3=CSC4=C3C(=C(C(=O)N4)C#N)O)O
# Method in brief: as §1
# [2] = compound: C1=CC=C(C(=C1)C2=CC=C(C=C2)C3=CSC4=C3C(=C(C(=O)N4)C#N)O)O + Cc1nc(NC(=O)N2CCC[C@H]2C(N)=O)sc1-c1ccnc(C(C)(C)C(F)(F)F)c1 [Alpelisib] (partner 2 µM)
# Method in brief: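 Relative viability is defined as nuclei in treated wells over nuclei in vehicle wells. Duplicate plates were run and medians reported. Lung cancer cell lines in 1536-well plates were dosed by pin tool one day after seeding, with one drug or with a fixed anchor-drug dose plus five library-drug doses (not always all listed) in √10 steps, and nuclei were counted after 5 days.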
Cell Line,relative viability (TGX 221; 0.08 µM),relative viability (TGX 221; 0.253 µM),relative viability (TGX 221; 0.8 µM),relative viability (TGX 221; 2.53 µM),relative viability (TGX 221; 8 µM),relative viability (Ricolinostat; 0.08 µM),relative viability (Ricolinostat; 0.253 µM),relative viability (Ricolinostat; 0.8 µM),relative viability (Ricolinostat; 2.53 µM),relative viability ([1]; 0.08 µM),relative viability ([1]; 0.253 µM),relative viability ([1]; 0.8 µM),relative viability ([1]; 2.53 µM),relative viability ([1]; 8 µM),relative viability ([2]; first compound 0.08 µM),relative viability ([2]; first compound 0.253 µM),relative viability ([2]; first compound 0.8 µM),relative viability ([2]; first compound 2.53 µM),relative viability ([2]; first compound 8 µM)
201T,0.911,0.959,0.979,0.865,0.876,0.876,0.978,1.02,0.93,0.945,0.964,0.932,0.94,1.02,1.08,1.03,1.01,1.01,1.08
A549,0.954,0.884,0.953,0.927,0.867,0.792,0.945,0.926,0.971,0.908,1.19,1.02,0.977,0.675,0.733,1.14,0.908,0.707,0.604
A-427,0.949,0.91,0.971,0.893,1,0.714,1.01,0.908,0.849,0.913,1.02,1.05,1.04,1,1.08,1.13,1.13,1.11,1.12
ABC-1,0.827,0.924,0.979,1.02,0.922,1,0.996,0.846,0.88,0.854,0.866,1.01,0.874,0.881,1.09,1.08,1.08,0.878,1.01
BEN,0.914,0.856,0.918,0.899,0.937,0.743,0.966,0.754,0.694,0.883,0.951,0.966,0.999,0.811,0.828,1.11,0.918,1.27,0.756
CAL-12T,0.963,0.936,0.992,0.917,1.05,0.835,0.953,0.953,1.01,0.894,1.24,0.946,0.929,0.747,–,1.05,0.989,1.2,0.861
COR-L23,1.01,1,0.97,1.02,0.989,0.942,0.895,0.844,0.707,1.13,1.07,1.1,1.13,0.704,0.832,0.998,0.702,0.92,0.63
COR-L 105,1.01,0.875,0.859,0.944,0.823,0.775,0.92,0.837,1.09,0.851,0.96,0.96,0.708,0.903,0.859,1.04,0.93,0.802,0.953
